Measured values taken from publication PMC6888270 (International Journal of Molecular Sciences, 2019).
Square brackets hold non-standard residues; d marks the D form. Peptide text beside a SMILES is read from it. d(hArg(Et2)) = CCN=C(NCC)NCCCC[C@@H](N)C(=O)O; hArg(Et2) = CCN=C(NCC)NCCCC[C@H](N)C(=O)O; dPhe(4-Cl) = N[C@H](Cc1ccc(Cl)cc1)C(=O)O; d2Nal = N[C@H](Cc1ccc2ccccc2c1)C(=O)O; dCit = NC(=O)NCCC[C@@H](N)C(=O)O; d3Pal = N[C@H](Cc1cccnc1)C(=O)O

Key:
[1] = target: T1, GnRH receptor (GnRHR) (Homo sapiens, UniProt P30968); assay: BRET (CAMYEL) measurement of cAMP accumulation in SH-SY5Y/GnRHR cells; type: cell-based; design: HA (hemagglutinin); expressed in transfected cells
T1 sequence (P30968 1-328): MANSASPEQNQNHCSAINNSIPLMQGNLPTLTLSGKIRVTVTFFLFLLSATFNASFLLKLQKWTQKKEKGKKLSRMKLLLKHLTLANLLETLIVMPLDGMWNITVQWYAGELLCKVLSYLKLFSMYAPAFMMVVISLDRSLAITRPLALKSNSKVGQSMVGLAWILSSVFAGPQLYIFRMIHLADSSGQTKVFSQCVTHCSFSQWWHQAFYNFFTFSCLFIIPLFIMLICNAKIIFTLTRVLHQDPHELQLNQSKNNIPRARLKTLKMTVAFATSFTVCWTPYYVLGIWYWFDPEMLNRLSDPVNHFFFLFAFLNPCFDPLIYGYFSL
Procedure: (§1) Different transfection protocols were followed, depending on the endpoint to be measured. For BRET experiments, 3 × 10^4 cells were transiently transfected using vectors expressing the cAMP-CAMYEL or the aequorin-Ca^2+ BRET biosensor-encoding cDNA [59], as appropriate, together with the GnRHR-HA-encoding vector. Transfections were performed in a 96-well plate using the Metafectene PRO reagent (Biontex, München, Germany), as previously described. […]
(§2) cAMP accumulation was measured in cells transiently expressing both the BRET-based cAMP biosensor CAMYEL [64] and GnRHR. […] BRET signals were detected at 475 and 535 nm wavelengths upon the addition of 5 µM Coelenterazine H (NanoLight Technologies). […]
(§3) BRET experiments were performed using a CLARIOstar plate reader equipped by a monocromator (BMG Labtech, Ortenberg, Germany), as previously described.
(§4) Data were plotted on graphs as means ± standard error of means (SEM). […] Data distributions were analyzed by D’Agostino and Pearson normality tests and inhibition of intracellular Ca^2+ increase by different concentrations of antagonist were compared using two-way analysis of variance (ANOVA), followed by Bonferroni post-test or Kruskal-Wallis and proper post-test. cAMP accumulation was represented as acceptor:donor emission ratio (induced BRET changes) after basal subtraction (untreated cells). […]

[2] = target: T1, GnRH receptor (GnRHR); assay: BRET (CAMYEL) measurement of cAMP accumulation in HEK293/GnRHR cells; type: cell-based; design: HA (hemagglutinin); expressed in transfected cells; host or cells: HEK293 (transient co-transfection with BRET biosensor)
Procedure: as §1, §2, §3, §4

[3] = tested on: β-catenin activation; assay: Immunofluorescence of active β-catenin in HEK293/GnRHR cells; type: cell-based, human; details: 1 µM GnRH + 1 µM antagonist, 1 h
Procedure: In order to evaluate the activation of phospho-proteins and β-catenin by Western blotting and immunofluorescence, 1 × 10^5 HEK293 cells were transiently transfected in a 24-well plate. To this purpose, 500 ng of GnRHR-HA-encoding vector diluted in 2 µL/well Lipofectamine® 2000 Transfection Reagent (Invitrogen) were used, according to the manufacturer’s instructions. Transfected HEK293 cells (HEK293/GnRHR) were cultured for 48 h and maintained over-night in serum-free medium before experiments.
3 × 10^4 HEK293/GnRHR and mock-transfected HEK293 cells (negative control) were plated on gelatine-treated slides. […] As a positive control, cells were treated for 16 h with 100 nM of the selective glycogen synthase kinase 3 (GSK3) inhibitor, CHIR99021 (Sigma-Aldrich), which stabilizes free cytosolic β-catenin [68]. After stimulations, cells were washed in PBS with Ca^2+/Mg^2+ and fixed for 20 min in paraformaldehyde 4%/PBS. Cell monolayers were washed by PBS and permeabilized using 0.1% Triton X-100. Samples were incubated in 4% bovine serum albumin (BSA)/PBS, for 1 h at room temperature (RT), before incubation with a mouse primary antibody targeting β-catenin (#05-665, 1:300 dilution in 4% BSA/PBS; Merck KGaA) overnight at 4 °C. Following washing, cells were then incubated with Cy3-conjugated anti-mouse IgG secondary antibody (#C2181, 1:200 dilution in 4% BSA/PBS; Sigma-Aldrich) for 1 h at RT. Cell monolayers were then stained for 10 min with 4′,6-diamidino-2-phenylindole (DAPI) (Sigma-Aldrich) and washed in PBS before slide treatment by polyvinyl alcohol mounting medium with 1,4-diazabicyclo[2.2.2]octane (DABCO®) (Sigma-Aldrich). Fluorescent signals were detected using the Eclipse Ni-E microscope (Nikon Instruments BV, Amsterdam, The Netherlands).

[4] = tested on: Lhb gene expression; assay: Lhb gene expression by qRT-PCR in LβT2 cells; type: cell-based, mouse; details: 1 µM GnRH + 1 µM antagonist, 24 h, n = 4
Procedure: LβT2 cells were seeded in 24-well plates (2 × 10^5 cells/well) and cultured for 24 h in DMEM supplemented with 10% Charcoal Stripped FBS, 4.5 g/L glucose, 100 IU/mL penicillin, 0.1 mg/mL streptomycin, and 1 mM glutamine (all from Sigma-Aldrich) before treatments. […] Samples were lysed for RNA extraction using TRIzolTM Reagent (Invitrogen) and equal amounts of total RNA were used for cDNA synthesis performed using the iScript reverse transcriptase (BioRad), as previously described. qRT-PCR was carried out in triplicates on the CFX96TM Real-Time PCR Detection System (BioRad) using the following primers pairs: [NT] for mouse Lhb; [NT] for mouse Gapdh. Primer sequences were drawn using the Mus musculus Lhb (NCBI Reference Sequence: NM_008497.2) and Gapdh (NM_008084.3) mRNAs as templates. Gene expression of Lhb was normalized to mouse Gapdh gene expression using the 2^-ΔΔCt method.

[5] = read-out: IC50 of inhibition of GnRH-induced cAMP accumulation

| Compound | IC50 [1] [nM] | IC50 [2] [nM] | effect on GnRH-induced active β-catenin staining [3] | effect on GnRH-induced Lhb gene expression [4] | IC50 [1, 5] [nM] | IC50 [2, 5] [nM] |
| --- | --- | --- | --- | --- | --- | --- |
| CC(=O)N[C@H](Cc1ccc2ccccc2c1)C(=O)N[C@H](Cc1ccc(Cl)cc1)C(=O)N[C@H](Cc1cccnc1)C(=O)N[C@@H](CO)C(=O)N[C@@H](Cc1ccc(O)cc1)C(=O)N[C@H](CCCNC(N)=O)C(=O)N[C@@H](CC(C)C)C(=O)N[C@@H](CCCNC(=N)N)C(=O)N1CCC[C@H]1C(=O)N[C@H](C)C(N)=O [Cetrorelix] (Ac-[d2Nal][dPhe(4-Cl)][d3Pal]SY[dCit]LRP[dA]-NH2) | 1.56 ± 2.49 | 0.84 | reduced | inhibited | – | – |
| CCN=C(NCC)NCCCC[C@H](NC(=O)[C@H](CC(C)C)NC(=O)[C@@H](CCCCNC(=NCC)NCC)NC(=O)[C@H](Cc1ccc(O)cc1)NC(=O)[C@H](CO)NC(=O)[C@@H](Cc1cccnc1)NC(=O)[C@@H](Cc1ccc(Cl)cc1)NC(=O)[C@@H](Cc1ccc2ccccc2c1)NC(C)=O)C(=O)N1CCC[C@H]1C(=O)N[C@H](C)C(N)=O [Ganirelix] (Ac-[d2Nal][dPhe(4-Cl)][d3Pal]SY[d(hArg(Et2))]L[hArg(Et2)]P[dA]-NH2; N-terminus and C-terminus assumed) | – | – | reduced | inhibited | 16.6 ± 3.76 | 0.61 |
